The IC50 is the concentration that inhibits the measured activity by half.

The structures appear in SMILES notation.

The text below walks through data of ChEMBL document CHEMBL3887009, “Substituted benzoxazoles” (2016).

This assay can be described thus: Inhibition Assay: To determine the thrombin inhibition of the substances listed above, a biochemical test system is constructed in which the conversion of a thrombin substrate is used for determining the enzymatic activity of human thrombin. Here, thrombin cleaves aminomethylcoumarin, which is measured fluorescently, from the peptic substrate. The determinations are carried out in microtitre plates.Substances to be tested are dissolved in various concentrations in dimethyl sulphoxide and incubated for 15 min with human thrombin (0.06 nmol/l dissolved in 50 mmol/l of Tris buffer [C,C,C-tris(hydroxymethyl)aminomethane], 100 mmol/l of sodium chloride, 0.1% BSA [bovine serum albumin], pH 7.4) at 22° C. The substrate (5 umol/l Boc-Asp(OBzl)-Pro-Arg-AMC from Bachem) is then added. After 30 min of incubation, the sample is excited at a wavelength of 360 nm and the emission is measured at 460 nm. The measured emissions of the test batches with test substance are compared to the control batches without test substance (only dimethyl sulphoxide instead of test substance in dimethyl sulphoxide) and the IC50 values are calculated from the concentration/activity relationships.

With `COc1cc(C(=O)N2CC(C)(CCO)OC[C@H]2C)cc2nc(N[C@H](CF)c3cccc(Cl)c3)oc12` (stereo partly specified), the IC50 was 130 nM.
